In brackets after ≈: the same amount, converted by molar mass. Several values for one entry are separate records, joined by “and”; a condition that tells them apart may be missing. Equal values may be shown once. Where a SMILES comes first, the peptide text is derived from it. Where no end group is shown, it is not given here.
What was measured:
E. coli = type: cell-based, Escherichia coli; conditions: 24 h
Description: (§1) A. baumannii strain (CECT 452, Valencia, Spain, ATCC 15308, Manassas, VA, USA) and Pseudomonas aeruginosa (P. aeruginosa) strain (CECT 4122, Valencia, Spain, ATCC 15692, Manassas, VA, USA) were from the Colección Española de Cultivos Tipo (CECT, Valencia, Spain). The Escherichia coli (E. coli) BL21 (DE3) strain was from Novagen (Darmstadt, Germany). MRC-5 cells were from the American Type Culture Collection (ATCC, Manassas, VA, USA) and HEK293T cell line was kindly provided by Dr. Raquel Pequerul (UAB, Barcelona, Spain).
(§2) The MIC is defined as the lowest concentration of one reagent to prevent visible growth of bacteria. The MIC determination was followed by the protocol described previously. Briefly, bacteria in exponential growth were used to prepare a suspension in MHB with the approximate number of 5 × 10^5 CFU/mL. Next, an aliquot of 90 μL of bacteria suspension was added into each well of the 96-well polypropylene plate. Immediately, 10 μL of peptide diluted by 0.01% acetic acid was added to the corresponding well to have a final concentration ranging from 20 to 0.16 μM. The plate was incubated for 24 h at 37 °C, 100 rpm. The presence or absence of bacterial growth was visually inspected and confirmed by reading OD600 with Tecan Microplate Reader Spark®. Each test was performed in triplicate.

P. aeruginosa = type: cell-based, Pseudomonas aeruginosa; conditions: 24 h
Description: as §1, §2

A. baumannii = type: cell-based, Acinetobacter baumannii; conditions: 24 h
Description: as §1, §2

in vitro = conditions: human, MRC-5 cells; for CC50 at 24 h: LD50 (MRC-5) 24 h; for CC50 at 48 h: LD50 (MRC-5) 48 h
Procedure: (§3) Cytotoxicity was measured for the MRC-5 and HEK293T cell lines by MTT assay. Cells were grown in 5% CO2 at 37 °C with MRC-5 cell line maintained in MEMα and HEK293T in DMEM/F-12 media, both of which were supplemented with 10% FBS. The cells were passaged in 25 cm^2 or 75 cm^2 flasks to prepare 96-well plates with 3 × 10^4 cells/well, which were incubated overnight. Next, serial dilutions of ECPep-D and ECPep-2D-Orn were added to have a final concentration ranging from 100 to 0.78 μM (375 μg/mL to 3 μg/mL) and colistin was added at final concentrations ranging from 300 to 2.34 μM (380 μg/mL to 3 μg/mL) in corresponding wells. After incubation to the specified time, the medium of the plate was replaced by fresh medium containing 0.5 mg/mL MTT solution and the mixture was incubated for 2.5 h in 5% CO2 at 37 °C. The medium was then removed, and formazan was dissolved by adding DMSO. The optical density (OD) was recorded by using a Victor^3 plate reader (PerkinElmer, Waltham, MA, USA) set at 540 nm and 620 nm as a reference. Each test was performed in triplicate.

MRC-5 cells = assay: Cytotoxicity assay (MTT); conditions: all the assayed time range (up to 48 h), highest concentration 100 μM
Procedure: as §3

HEK293T cells = conditions: 48 h
Procedure: as §3

[1] = Tolerance study of peptides in mouse (Up and Down, main study, extra groups); type: in vivo, Balb/c mice; conditions: for clinical score: 30 mg/kg i.p., within 30 min; for clinical score / MTD: Up and Down assay; for MTD: in vivo, ip, one single dose, i.p., 1 mouse per peptide, read-out: maximum tolerated dose; for clinical signs after a single dose (main study): single i.p. dose: 20 mg/kg ECPep-D, 25 mg/kg ECPep-2D-Orn, all mice
Procedure: Initially, the “Up and Down” protocol was followed to determine the maximum lethal dose with some modifications. Briefly, one mouse was taken per peptide and increasing doses of the peptide were injected through the intraperitoneal (i.p.) route every 48 h, and the concentration at which the mouse had severe clinical symptoms or died was determined (Figure 1a).
Figure 1 Toxicity study plans. (a) “Up and Down” protocol: 1 mouse was injected, starting at a very low peptide dose and observed at 48 h intervals. […] (b) Main study: mice were divided into groups randomly; 1 as well as 2 peptide doses below the lethal dose from the “Up and Down” assay was given two times per day for 3 days (the protocol was readjusted in case of emergency owing to ethical principles, as detailed in the results section and Table S1). An extra group is for the vehicle. (c) Last study: Peptide was tested in smaller groups at lower doses depending on the results obtained from the main study.
Once the lethal concentration had been determined, we continued with the “main study” (Figure 1b). Two groups of 6 female mice were used at two different concentrations of both peptides, one and two concentrations below the maximum considered either by lethality or by clinical signs. The toxicity was further verified by mimicking the doses and frequency foreseen in the previous study, i.e., two doses per day for 3 days as the initial plan.
There was also an extra group to confirm the non-toxicity of the vehicle. For extra caution, some additional doses were applied to confirm the safety dose in case of repeated injections (Figure 1c).
Body weight (BW, g) of mice was measured before every injection and % BW gain was calculated. % BW gain = (new BW − initial BW)/initial BW × 100%(1)
In the tolerance study, for the “Up and Down” assay, the BW was recorded twice on the administration day and, for the “main study”, it was measured every day at the first 3 days and then at some selected days until the 16th day, when the monitoring was finished. In both efficacy assays, BW was recorded once a day but on the first day (Day 0), a second measure was conducted at 8 h.
The clinical symptoms were assessed through a scoring system, which contains 9 items, including changes of body weight, behavior, breathing, skin, hair, eyes and gastrointestinal status (see full list at Table S2). The score for each item increases from 0 to 3 according to the severe levels, up to a total of 27. During the study, when an animal obtained a score of 3 in any of the parameters assessed with a maximum score of 3, euthanasia was carried out to apply the endpoint criteria. Euthanasia would also be practiced if the sum of several parameters that are less than 3 separately was ≥ 7.
In the tolerance study, the clinical score was recorded at about 10 min, 30 min, 1 h, 2 h, 4 h, 7 h, 24 h and 48 h after injecting the peptides for the “Up and Down” assay and in the main study, the clinical score were only monitored when the BW was measured. During the efficacy assay, the clinical score was recorded every 2–3 h on Day 0 and then twice every day.

[2] = human serum in vitro; cited from earlier work

| Compound | MIC E. coli (E. coli) [µM] | MIC P. aeruginosa (P. aeruginosa) [µM] | MIC A. baumannii (A. baumannii) [µM] | CC50 at 24 h (in vitro) | CC50 at 48 h (in vitro) | toxicity for MRC-5 at the highest tested concentration (MRC-5 cells) | IC50 (HEK293T cells) [µM] | clinical score [1] | MTD [1] [mg/kg] | clinical signs after a single dose (main study) [1] | half-life time in human serum [2] [h] | CC50 at 4 h (in vitro; LD50 (MRC-5) 4 h) |
| --- | --- | --- | --- | --- | --- | --- | --- | --- | --- | --- | --- | --- |
| CC[C@H](C)[C@H](NC(=O)[C@H](C)NC(=O)[C@H](CCCN)NC(=O)[C@H](CCSC)NC(=O)[C@H](C)NC(=O)[C@@H](NC(=O)[C@@H](NC(=O)[C@H](CCCN)NC(=O)[C@@H]1CCCN1C(=O)[C@H](CO)NC(=O)[C@@H](NC(=O)[C@H](Cc1c[nH]cn1)NC(=O)[C@H](CCC(N)=O)NC(=O)[C@@H](NC(=O)[C@H](C)NC(=O)[C@H](Cc1ccccc1)NC(=O)[C@H](Cc1c[nH]c2ccccc12)NC(=O)[C@H](CCC(N)=O)NC(=O)[C@H](C)NC(=O)[C@H](CCCN)NC(=O)[C@@H](NC(=O)[C@H](Cc1ccccc1)NC(=O)[C@H]1CCCN1C(=O)[C@@H](N)CCCN)[C@@H](C)O)[C@@H](C)CC)[C@@H](C)CC)[C@@H](C)O)[C@@H](C)CC)C(=O)N[C@@H](CC(N)=O)C(=O)N[C@@H](CC(N)=O)C(=O)N[C@@H](Cc1ccc(O)cc1)C(=O)N[C@@H](CCCN)C(=O)N[C@@H](Cc1c[nH]c2ccccc12)C(=O)N[C@@H](CCCN)C(N)=O [ECPep-2D-Orn] (HELM PEPTIDE1{[Orn].[dP].F.T.[Orn].A.Q.W.F.A.I.Q.H.I.S.P.[Orn].T.I.A.M.[Orn].A.I.N.N.Y.[Orn].W.[Orn].[am]}$$$$V2.0) | >20 | >20 | 5 (≈ 17.5 µg/mL) | > 100 µM and > 351 µg/mL | > 100 µM and > 351 µg/mL | no toxicity was observed | > 100 | over 6 | 25 | did not cause any obvious clinical signs | > 8 | – |
| CC[C@@H](C)[C@@H](NC(=O)[C@@H](C)NC(=O)[C@@H](CCCNC(=N)N)NC(=O)[C@@H](CCSC)NC(=O)[C@@H](C)NC(=O)[C@H](NC(=O)[C@H](NC(=O)[C@@H](CCCNC(=N)N)NC(=O)[C@H]1CCCN1C(=O)[C@@H](CO)NC(=O)[C@H](NC(=O)[C@@H](Cc1c[nH]cn1)NC(=O)[C@@H](CCC(N)=O)NC(=O)[C@H](NC(=O)[C@@H](C)NC(=O)[C@@H](Cc1ccccc1)NC(=O)[C@@H](Cc1c[nH]c2ccccc12)NC(=O)[C@@H](CCC(N)=O)NC(=O)[C@@H](C)NC(=O)[C@@H](CCCNC(=N)N)NC(=O)[C@H](NC(=O)[C@@H](Cc1ccccc1)NC(=O)[C@H]1CCCN1C(=O)[C@H](N)CCCNC(=N)N)[C@H](C)O)[C@H](C)CC)[C@H](C)CC)[C@H](C)O)[C@H](C)CC)C(=O)N[C@H](CC(N)=O)C(=O)N[C@H](CC(N)=O)C(=O)N[C@H](Cc1ccc(O)cc1)C(=O)N[C@H](CCCNC(=N)N)C(=O)N[C@H](Cc1c[nH]c2ccccc12)C(=O)N[C@H](CCCNC(=N)N)C(N)=O [ECPep-D] (HELM PEPTIDE1{[dR].[dP].[dF].[dT].[dR].[dA].[dQ].[dW].[dF].[dA].[dI].[dQ].[dH].[dI].[dS].[dP].[dR].[dT].[dI].[dA].[dM].[dR].[dA].[dI].[dN].[dN].[dY].[dR].[dW].[dR].[am]}$$$$V2.0) | 10 (≈ 37.6 µg/mL) | 10 (≈ 37.6 µg/mL) | 10 (≈ 37.6 µg/mL) | 164 ± 33.2 µg/mL (≈ 43.5 µM) | 88.4 ± 17.8 µg/mL (≈ 23.5 µM) | – | – | over 6 | 20 | did not cause any obvious clinical signs | – | – |
| RPFTRAQWFAIQHISPRTIAMRAINNYRWR-NH2 [ECPep-L] | 10 | 10 | 10 | – | – | – | – | – | – | – | 0.2 | 276 µM and > 1000 µg/mL |

Reference: publication PMC8962335, “In Vivo Evaluation of ECP Peptide Analogues for the Treatment of Acinetobacter baumannii Infection” (Biomedicines, 2022)
